In patent US9931315B2, “Method of selectively inhibiting Ras-mediated tumor growth in humans” (ADT PHARMACEUTICALS, INC., priority 2014, dated 2018):
Read-outs that look alike come from different tables or passages of the source.

Legend:
A549 lung cancer cells = assay: Cell growth inhibition (CellTiter-Glo ATP assay), A549 cells with mutant K-Ras; format: cell-based, human; conditions: for IC50: Homo sapiens, A549, 72 h, growth inhibition, three days treatment, K-Ras mutant lung cancer cells, read-out: A549 (Ras-activated) IC50; for Selectivity HT-29/A549: ratio IC50 HT-29 (WT Ras) / IC50 A549 (Ras-activated)
Description: This example illustrates cell growth assays employed in the present invention. Cells used in such assays included A-549, HT-29, MDA-MB-231, Colo-205, Caco2, HCT-116, SW-480, and DLD-1 human cancer cells obtained from the American Type Culture Collection (ATCC).
(§1) Human tumor cells were cultured using standard methods in RPMI-1640 growth medium supplemented with 5% fetal bovine serum (FBS). Normal rat kidney (NRK) and Ki-Ras transformed NRK cells (K-NRK) were obtained from ATCC, and were cultured according to supplier recommendations. CellTiter-Glo ATP cell growth assay reagents were obtained from Promega and used according to the manufacturer's protocol. Inhibitors of EGFR, Raf, and MEK were obtained from Selleck Chemicals. Cells were plated at a density of 5,000 cells per well in 96-well microplates or 1,250 cells per well in 384-well plates, and allowed to attach for at least 4 h. Test compounds were dissolved in dimethyl sulfoxide (DMSO), and this working stock was further diluted in growth medium for addition to cell cultures. Serial dilutions of the test compound were prepared in growth medium containing an equal amount of DMSO not exceeding 0.2% final concentration. Each compound concentration was tested in at least 3 separate samples per cell line. At the end of a 3-day treatment period, growth inhibition was analyzed using a bioluminescent assay of ATP concentration (Promega CellTiter-Glo) according to the manufacturer's protocol. Resulting luminescence was measured using the luminescence cartridge of the Molecular Devices Spectramax Paradigm microplate reader. Relative growth inhibition for each sample was determined by comparison with the values obtained for vehicle treated control samples. Growth inhibition values were plotted with the GraphPad Prism5 software using the 4-parameter logistic fit to obtain IC50 values, which corresponds to the growth inhibitory potency of the compound.
(§2) This example illustrates effects of exemplary compounds of the present invention on cancer cells having activated or mutated Ras compared to wild-type (WT) Ras. […] A549 lung cancer cells, which harbor a mutation in the K-Ras oncogene were treated for three days with the compounds.

HT-29 colon cancer cells = assay: Cell growth inhibition (CellTiter-Glo ATP assay), HT-29 cells with wild-type Ras; format: cell-based, human
Description: (§3) This example illustrates cell growth assays employed in the present invention.
as §1, with “Normal” for “Human tumor cells were cultured using standard methods in RPMI-1640 growth medium supplemented with 5% fetal bovine serum (FBS). Normal”
as §2
(§4) Cells were seeded in 384-well plates and allowed to attach. Ten-fold serial dilutions of compounds were tested. Each compound concentration was tested in at least 3 separate samples per cell line.

SW-480 cells = assay: Cell growth inhibition (CellTiter-Glo), SW-480 colorectal cells with activated Ras; format: cell-based, human; conditions: for IC50: 384-well plates; for Selectivity Caco-2/SW-480: ratio IC50 Caco-2 (WT Ras) / IC50 SW-480 (Ras activated)
Description: as §3
as §1, with “Normal” for “Human tumor cells were cultured using standard methods in RPMI-1640 growth medium supplemented with 5% fetal bovine serum (FBS). Normal”
The growth inhibitory activity of the compounds was tested using the CellTiter-Glo assay. Cells were seeded in 384-well plates and allowed to attach, then ten-fold serial dilutions of compounds were tested. Each concentration was tested in at least 3 separate samples per cell line.
as §4

Caco-2 cells = assay: Cell growth inhibition (CellTiter-Glo), Caco-2 colorectal cells with wild-type Ras; format: cell-based, human; conditions: 384-well plates
[1] = test system: HCT-116 colon tumor cells; assay: Cell growth inhibition (CellTiter-Glo), HCT-116 colon tumor cells expressing mutant Ras; format: cell-based, human; conditions: for HT-29/HCT-116 selectivity values: ratio IC50 HT-29 (WT Ras) / IC50 HCT-116 (mutant Ras), 5000 cells/well, 96-well plates
Description: This example illustrates cell growth assays employed in the present invention. […] Normal rat kidney (NRK) and Ki-Ras transformed NRK cells (K-NRK) were obtained from ATCC, and were cultured according to supplier recommendations. CellTiter-Glo ATP cell growth assay reagents were obtained from Promega and used according to the manufacturer's protocol. Inhibitors of EGFR, Raf, and MEK were obtained from Selleck Chemicals. Cells were plated at a density of 5,000 cells per well in 96-well microplates or 1,250 cells per well in 384-well plates, and allowed to attach for at least 4 h. Test compounds were dissolved in dimethyl sulfoxide (DMSO), and this working stock was further diluted in growth medium for addition to cell cultures. Serial dilutions of the test compound were prepared in growth medium containing an equal amount of DMSO not exceeding 0.2% final concentration. Each compound concentration was tested in at least 3 separate samples per cell line. At the end of a 3-day treatment period, growth inhibition was analyzed using a bioluminescent assay of ATP concentration (Promega CellTiter-Glo) according to the manufacturer's protocol. Resulting luminescence was measured using the luminescence cartridge of the Molecular Devices Spectramax Paradigm microplate reader. Relative growth inhibition for each sample was determined by comparison with the values obtained for vehicle treated control samples. […] This example illustrates use of well-established human colon tumor cell lines with widely divergent Ras activation status to determine selectivity values for exemplary compounds of the present invention. […] Cells were plated at 5000 cells/well in 96-well plates, and viable cell numbers were measured using the Cell Titer Glo ATP luminescence assay (Promega). […] Cells were seeded in 384-well plates and allowed to attach. Ten-fold serial dilutions of compounds were tested. Each compound concentration was tested in at least 3 separate samples per cell line.

DLD-1 cells = assay: Cell growth inhibition (CellTiter-Glo), DLD-1 colorectal cells; format: cell-based, human; conditions: known Ras pathway inhibitors, 384-well plates, Table 4
COLO-205 cells = assay: Cell growth inhibition (CellTiter-Glo), COLO-205 colorectal cells; format: cell-based, human; conditions: known Ras pathway inhibitors, 384-well plates, Table 4
[2] = test system: panel of colorectal cancer cell lines; assay: Growth inhibition of known Ras pathway inhibitors across the colorectal cell line panel, pattern versus Ras activation; format: cell-based, human; conditions: HCT-116, DLD-1, SW-480, Caco-2, HT-29, COLO-205 panel
Description: This example illustrates non-selective growth inhibition with known Ras pathway inhibitors which are not compounds of the present invention. In particular, the growth inhibitory activity of commercially available compounds which are active in the Ras signal transduction pathway were tested in the same panel of cell lines using the CellTiter-Glo assay. Cells were seeded in 384-well plates and allowed to attach. Ten-fold serial dilutions of compounds were tested. Each compound concentration was tested in at least 3 separate samples per cell line.

[3] = test system: cells expressing oncogenic H-Ras; conditions: NIH probe report, cited from earlier work
[4] = Homo sapiens, HT-29, growth inhibition, colon cancer cells with wild-type Ras, Table 2, read-out: HT-29 (WT Ras) IC50
[5] = Homo sapiens, SW480, growth inhibition, Table 3, read-out: SW-480 (Ras Activated IC50)
[6] = Homo sapiens, Caco-2, growth inhibition, Table 3, read-out: Caco-2 (WT Ras) IC50

Compound | IC50 (A549 lung cancer cells) | Selectivity HT-29/A549 (A549 lung cancer cells) | IC50 (HT-29 colon cancer cells; [4]) | IC50 (SW-480 cells; [5]) | Selectivity Caco-2/SW-480 (SW-480 cells) | IC50 (Caco-2 cells; [6]) | HT-29/HCT-116 selectivity values [1] | further results
COc1ccc2c(c1)C(CC(=O)NCc1ccco1)=C(C)/C2=C/c1cc(OC)c(O)c(OC)c1 [Compound 006, (Z)—N-(furan-2-ylmethyl)-2-(1-(4-hydroxy-3,5-dimethoxybenzylidene)-5-methoxy-2-methyl-1H-inden-3-yl)acetamide] | 0.011 µM | 739 | 8.13 µM | 0.00285 µM | 150 | 0.428 µM | 43 | –
COc1cc(/C=C2/C(C)=C(CC(=O)NCc3ccco3)c3cc(F)ccc32)cc(OC)c1O [Compound 007, (Z)-2-(5-fluoro-1-(4-hydroxy-3,5-dimethoxybenzylidene)-2-methyl-1H-inden-3-yl)-N-(furan-2-ylmethyl)acetamide] | 0.00086 µM | 326 | 0.28 µM | 0.00037 µM | 5 | 0.00197 µM | 92 | –
COc1cc(/C=C2/C(C)=C(CC(=O)NCc3ccccn3)c3cc(F)ccc32)cc(OC)c1O [Compound 010, (Z)-2-(5-fluoro-1-(4-hydroxy-3,5-dimethoxybenzylidene)-2-methyl-1H-inden-3-yl)-N-(pyridin-2-ylmethyl)acetamide] | 0.17 µM | 4 | 0.712 µM | 0.0021 µM | 16 | 0.0338 µM | 141 | –
COc1cc(/C=C2/C(C)=C(CC(=O)NCc3cccnc3)c3cc(F)ccc32)cc(OC)c1O [Compound 011, (Z)-2-(5-fluoro-1-(4-hydroxy-3,5-dimethoxybenzylidene)-2-methyl-1H-inden-3-yl)-N-(pyridin-3-ylmethyl)acetamide] | 0.015 µM | 196 | 2.94 µM | 0.0213 µM | 2 | 0.0476 µM | 168 | –
O=C1Nc2ccc(I)cc2/C1=C/c1cc(Br)c(O)c(Br)c1 [GW5074, reference compound] | – | – | – | – | – | – | – | IC50 (HT-29 colon cancer cells; known Ras pathway inhibitors, 384-well plates, Table 4, read-out: HT-29 IC50): 19.1 µM; IC50 (SW-480 cells; known Ras pathway inhibitors, Table 4, read-out: SW-480 IC50): 8.07 µM; IC50 (Caco-2 cells; known Ras pathway inhibitors, Table 4, read-out: Caco-2 IC50): > 20 µM; IC50 ([1]; known Ras pathway inhibitors, 384-well plates, Table 4): 15.8 µM; IC50 (DLD-1 cells): 7.75 µM; IC50 (COLO-205 cells): 7.1 µM; selectivity with regard to Ras activation [2]: did not show selectivity
Cc1onc(C(=O)N2CCN(C(c3ccc(Cl)cc3)c3ccc(Cl)cc3)CC2)c1[N+](=O)[O-] [ML210] | – | – | – | – | – | – | – | selectivity versus cells lacking oncogenic Ras [3]: 4 fold; IC50 ([3]; read-out: IC50, growth of cells expressing mutant Ras): 0.071 µM
Cn1cnc2c(F)c(Nc3ccc(Br)cc3Cl)c(C(=O)NOCCO)cc21 [Selumetinib] | – | – | – | – | – | – | – | IC50 (DLD-1 cells; Homo sapiens, DLD-1): 20.4 µM
